The target in the test is human FXR (NR1H4) (Homo sapiens (Human), UniProt Q96RI1). The test is described as follows: Human FXR (NR1H4) Assay (Gal4 promoter driven luciferase reporter, Indigo Bioscience kit).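 For Efficacy (%): 100% equals the efficacy of CDCA; efficacy normalized to CDCA set as 100%.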 The format is cell-based. The conditions noted are these: for EC50: Human FXR (NR1H4) Assay, potency ranges; for Emax: read-out: Efficacy (%). The text has this: ASSAYS Human FXR (NR1H4) Assay
Determination of a ligand mediated Gal4 promoter driven transactivation to quantify ligand binding mediated activation of FXR. FXR Reporter Assay kit purchased from Indigo Bioscience (Catalogue number: IB00601) to determine the potency and efficacy of compound developed by Enanta that can induce FXR activation. The principle application of this reporter assay system is to quantify functional activity of human FXR. The assay utilizes non-human mammalian cells, CHO (Chinese hamster ovary) cells engineered to express human NR1H4 protein (referred to as FXR). Reporter cells also incorporate the cDNA encoding beetle luciferase which catalyzes the substrates and yields photon emission. Luminescence intensity of the reaction is quantified using a plate-reading luminometer, Envision. Reporter Cells include the luciferase reporter gene functionally linked to an FXR responsive promoter. Thus, quantifying changes in luciferase expression in the treated reporter cells provides a sensitive surrogate measure of the changes in FXR activity. […] The assay is according to the manufacturer's instructions. In brief, the assay was performed in white, 96 well plates using final volume of 100 uL containing cells with different doses of compounds. Retrieve Reporter Cells from −80° C. storage. Perform a rapid thaw of the frozen cells by transferring a 10 ml volume of 37° C. cell recovery medium into the tube of frozen cells. Recap the tube of Reporter Cells and immediately place it in a 37° C. water bath for 5-10 minutes. Retrieve the tube of Reporter Cell Suspension from the water bath. Sanitize the outside surface of the tube with a 70% alcohol swab, and then transfer it into the cell culture hood. Dispense 90 μl of cell suspension into each well of the 96-well Assay Plate. Transfer the plate into 37° C. incubator, allowing the cells adherent to the bottom of the well. Dilute compounds in Dilution Plate (DP), and administrate to cells at Assay Plate (AP). DMSO content of the samples was kept at 0.2%. Cells were incubated for additional 22 hours before luciferase activities were measured. Thirty minutes before intending to quantify FXR activity, remove Detection Substrate and Detection Buffer from the refrigerator and place them in a low-light area so that they may equilibrate to room temperature. Remove the plate's lid and discard all media contents by ejecting it into an appropriate waste container. Gently tap the inverted plate onto a clean absorbent paper towel to remove residual droplets. Cells will remain tightly adhered to well bottoms. Add 100 μl of luciferase detection reagent to each well of the assay plate. Allow the assay plate to rest at room temperature for at least 5 minutes following the addition of LDR. Set the instrument (Envision) to perform a single 5 second “plate shake” prior to reading the first assay well. Read time may be 0.5 second (500 mSec) per well.

Results on 27 compounds are retold here after US10457703B2, “Bile acid derivatives as FXR/TGR5 agonists and methods of use thereof” (ENANTA PHARMACEUTICALS, INC., priority 2015, dated 2019).

human FXR (NR1H4), sequence (Q96RI1 whole entry, the tested form may be a part): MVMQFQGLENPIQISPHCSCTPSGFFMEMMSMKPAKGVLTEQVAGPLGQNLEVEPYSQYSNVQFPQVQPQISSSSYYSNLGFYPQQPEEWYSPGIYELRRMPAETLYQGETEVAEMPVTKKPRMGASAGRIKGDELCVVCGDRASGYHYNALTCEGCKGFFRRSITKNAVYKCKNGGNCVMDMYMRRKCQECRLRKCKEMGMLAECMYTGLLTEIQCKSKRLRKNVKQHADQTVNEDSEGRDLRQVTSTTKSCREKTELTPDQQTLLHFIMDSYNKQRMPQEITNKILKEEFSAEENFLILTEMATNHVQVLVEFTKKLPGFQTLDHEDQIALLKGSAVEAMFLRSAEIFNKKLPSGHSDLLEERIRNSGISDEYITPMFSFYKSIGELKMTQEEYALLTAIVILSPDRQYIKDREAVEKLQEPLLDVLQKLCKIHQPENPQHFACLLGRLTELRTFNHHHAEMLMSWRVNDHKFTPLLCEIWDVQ

By EC50 is commonly meant the concentration at which the effect is half-maximal. High values mean weaker potency, low ones greater potency. With `CC[C@H]1[C@@H](O)[C@@H]2[C@H](CC[C@]3(C)[C@@H]([C@H](C)CCCOC(=O)NS(=O)(=O)c4ccc(C)cc4)CC[C@@H]23)[C@@]2(C)CC[C@@H](O)C[C@@H]12` [Example 1], the concentration for a half-maximal effect (EC50) was in the range of 100 to 1000 nM and the Emax came to 422%.

In the case of `CC[C@H]1[C@@H](O)[C@@H]2[C@H](CC[C@]3(C)[C@@H]([C@H](C)CCCOC(=O)NS(=O)(=O)C4CCCCC4)CC[C@@H]23)[C@@]2(C)CC[C@@H](O)C[C@@H]12` [Example 2], the EC50 lay in the range of 100 to 1000 nM and the Emax came to 247%.

In the case of `CC[C@H]1[C@@H](O)[C@@H]2[C@H](CC[C@]3(C)[C@@H]([C@H](C)COC(=O)NS(=O)(=O)c4ccc(C(C)(C)C)cc4)CC[C@@H]23)[C@@]2(C)CC[C@@H](O)C[C@@H]12` [Example 4], the EC50 was less than 100 nM and the Emax turned out to be 319%.

For the compound `CC[C@H]1[C@@H](O)[C@@H]2[C@H](CC[C@]3(C)[C@@H]([C@H](C)COC(=O)NS(=O)(=O)c4ccc(C)cc4)CC[C@@H]23)[C@@]2(C)CC[C@@H](O)C[C@@H]12` [Example 5], the concentration giving a half-maximal response (EC50) was in the range of 100 to 1000 nM and the Emax was found to be 85%.

Take `CC[C@H]1[C@@H](O)[C@@H]2[C@H](CC[C@]3(C)[C@@H]([C@H](C)COC(=O)NS(=O)(=O)c4ccc(OC(F)(F)F)cc4)CC[C@@H]23)[C@@]2(C)CC[C@@H](O)C[C@@H]12` [Example 6]: the EC50 is 100 to 1000 nM and the Emax is 298%.

On to `CC[C@H]1[C@@H](O)[C@@H]2[C@H](CC[C@]3(C)[C@@H]([C@H](C)COC(=O)NS(=O)(=O)N(C)C)CC[C@@H]23)[C@@]2(C)CC[C@@H](O)C[C@@H]12` [Example 7], for which the EC50 is 1000 to 10000 nM and the Emax was 168%.

As to `CC[C@H]1[C@@H](O)[C@@H]2[C@H](CC[C@]3(C)[C@@H]([C@H](C)COC(=O)NS(=O)(=O)C4CCCCC4)CC[C@@H]23)[C@@]2(C)CC[C@@H](O)C[C@@H]12` [Example 8], the concentration giving a half-maximal response (EC50) is 100 to 1000 nM and the Emax turned out to be 327%.

Consider `CC[C@H]1[C@@H](O)[C@@H]2[C@H](CC[C@]3(C)[C@@H]([C@H](C)COC(=O)NS(=O)(=O)c4ccc(N5CCCCC5)cc4)CC[C@@H]23)[C@@]2(C)CC[C@@H](O)C[C@@H]12` [Example 9], for which the EC50 was less than 100 nM and the Emax worked out at 208%.

Turning to `CC[C@H]1[C@@H](O)[C@@H]2[C@H](CC[C@]3(C)[C@@H]([C@H](C)COC(=O)NS(=O)(=O)c4ccc(-c5ccccc5)s4)CC[C@@H]23)[C@@]2(C)CC[C@@H](O)C[C@@H]12` [Example 10], the EC50 was less than 100 nM and the Emax came to 259%.

Regarding `CC[C@H]1[C@@H](O)[C@@H]2[C@H](CC[C@]3(C)[C@@H]([C@H](C)COC(=O)NS(=O)(=O)c4ccc(C5CCCCC5)cc4)CC[C@@H]23)[C@@]2(C)CC[C@@H](O)C[C@@H]12` [Example 11], the half-maximal effective concentration (EC50) is less than 100 nM and the Emax worked out at 224%.

Take `CC[C@H]1[C@@H](O)[C@@H]2[C@H](CC[C@]3(C)[C@@H]([C@H](C)COC(=O)NS(=O)(=O)c4ccc5ccccc5c4)CC[C@@H]23)[C@@]2(C)CC[C@@H](O)C[C@@H]12` [Example 12]: the concentration for a half-maximal effect (EC50) was less than 100 nM and the Emax was found to be 217%.

In the case of `CC[C@H]1[C@@H](O)[C@@H]2[C@H](CC[C@]3(C)[C@@H]([C@H](C)COC(=O)NS(=O)(=O)N4CCCC4)CC[C@@H]23)[C@@]2(C)CC[C@@H](O)C[C@@H]12` [Example 13], the EC50 fell in the range of 100 to 1000 nM and the Emax was found to be 324%.

Regarding `CC[C@H]1[C@@H](O)[C@@H]2[C@H](CC[C@]3(C)[C@@H]([C@H](C)COC(=O)NS(=O)(=O)c4ccc(N5CCCCC5)nc4)CC[C@@H]23)[C@@]2(C)CC[C@@H](O)C[C@@H]12` [Example 14], the EC50 was less than 100 nM and the Emax stood at 270%.

`CC[C@H]1[C@@H](O)[C@@H]2[C@H](CC[C@]3(C)[C@@H]([C@H](C)COC(=O)NS(=O)(=O)c4ccc(N5CCOCC5)nc4)CC[C@@H]23)[C@@]2(C)CC[C@@H](O)C[C@@H]12` [Example 15]: the EC50 was less than 100 nM and the Emax stood at 197%.

Take `CC[C@H]1[C@@H](O)[C@@H]2[C@H](CC[C@]3(C)[C@@H]([C@H](C)COC(=O)NS(=O)(=O)c4ccc(-n5cccn5)nc4)CC[C@@H]23)[C@@]2(C)CC[C@@H](O)C[C@@H]12` [Example 16]: the EC50 is less than 100 nM and the Emax worked out at 187%.

On to `CC[C@H]1[C@@H](O)[C@@H]2[C@H](CC[C@]3(C)[C@@H]([C@H](C)COC(=O)NS(=O)(=O)c4ccc(N5CCC5)cc4)CC[C@@H]23)[C@@]2(C)CC[C@@H](O)C[C@@H]12` [Example 17], for which the EC50 was less than 100 nM and the Emax stood at 211%.

With `CC[C@H]1[C@@H](O)[C@@H]2[C@H](CC[C@]3(C)[C@@H]([C@H](C)COC(=O)NS(=O)(=O)c4ccc(N5CCCCC5=O)cc4)CC[C@@H]23)[C@@]2(C)CC[C@@H](O)C[C@@H]12` [Example 18], the EC50 is less than 100 nM and the Emax worked out at 221%.

On to `CC[C@H]1[C@@H](O)[C@@H]2[C@H](CC[C@]3(C)[C@@H]([C@H](C)COC(=O)NS(=O)(=O)c4ccc(N5CCOCC5)cc4)CC[C@@H]23)[C@@]2(C)CC[C@@H](O)C[C@@H]12` [Example 19], for which the EC50 was less than 100 nM and the Emax was 219%.

For `CC[C@H]1[C@@H](O)[C@@H]2[C@H](CC[C@]3(C)[C@@H]([C@H](C)COC(=O)NS(=O)(=O)c4ccc(N5CCC(C)(C)CC5)cc4)CC[C@@H]23)[C@@]2(C)CC[C@@H](O)C[C@@H]12` [Example 20], the concentration for a half-maximal effect (EC50) is less than 100 nM and the Emax was determined as 203%.

Turning to `CC[C@H]1[C@@H](O)[C@@H]2[C@H](CC[C@]3(C)[C@@H]([C@H](C)COC(=O)NS(=O)(=O)c4ccc(N5CCC(F)(F)CC5)cc4)CC[C@@H]23)[C@@]2(C)CC[C@@H](O)C[C@@H]12` [Example 21], the EC50 is less than 100 nM and the Emax was determined as 225%.

Consider `CC[C@H]1[C@@H](O)[C@@H]2[C@H](CC[C@]3(C)[C@@H]([C@H](C)COC(=O)NS(=O)(=O)c4ccc(N5CCCCCC5)cc4)CC[C@@H]23)[C@@]2(C)CC[C@@H](O)C[C@@H]12` [Example 22], for which the EC50 is less than 100 nM and the Emax is 262%.

Turning to `CC[C@H]1[C@@H](O)[C@@H]2[C@H](CC[C@]3(C)[C@@H]([C@H](C)COC(=O)NS(=O)(=O)c4ccc5ncccc5c4)CC[C@@H]23)[C@@]2(C)CC[C@@H](O)C[C@@H]12` [Example 23], the EC50 was less than 100 nM and the Emax was 182%.

For `CC[C@H]1[C@@H](O)[C@@H]2[C@H](CC[C@]3(C)[C@@H]([C@H](C)COC(=O)NS(=O)(=O)c4cnc5ccccc5c4)CC[C@@H]23)[C@@]2(C)CC[C@@H](O)C[C@@H]12` [Example 24], the EC50 is less than 100 nM and the Emax amounted to 193%.

Take `CC[C@H]1[C@@H](O)[C@@H]2[C@H](CC[C@]3(C)[C@@H]([C@H](C)COC(=O)NS(=O)(=O)c4ccc(-c5ccc(C(C)(C)C)cc5)s4)CC[C@@H]23)[C@@]2(C)CC[C@@H](O)C[C@@H]12` [Example 25]: the EC50 fell in the range of 100 to 1000 nM and the Emax worked out at 182%.

For the compound `CC[C@H]1[C@@H](O)[C@@H]2[C@H](CC[C@]3(C)[C@@H]([C@H](C)COC(=O)NS(=O)(=O)c4ccc(-c5ccc(OC(F)(F)F)cc5)s4)CC[C@@H]23)[C@@]2(C)CC[C@@H](O)C[C@@H]12` [Example 26], the EC50 is 100 to 1000 nM and the Emax was 206%.

As to `CC[C@H]1[C@@H](O)[C@@H]2[C@H](CC[C@]3(C)[C@@H]([C@H](C)COC(=O)NS(=O)(=O)c4ccc(-c5ccc(C(F)(F)F)cc5)s4)CC[C@@H]23)[C@@]2(C)CC[C@@H](O)C[C@@H]12` [Example 27], the EC50 was 100 to 1000 nM and the Emax is 173%.

In the case of `CC[C@H]1[C@@H](O)[C@@H]2[C@H](CC[C@]3(C)[C@@H]([C@H](C)COC(=O)NS(=O)(=O)c4ccc(-c5ccc(F)cc5)cc4)CC[C@@H]23)[C@@]2(C)CC[C@@H](O)C[C@@H]12` [Example 28], the EC50 is less than 100 nM and the Emax was 194%.
